≈ marks a conversion by molar mass, not a printed value. A value given as a limit tells only on which side of the number the result lay.

Here are results for ten compounds from ChEMBL document CHEMBL1147908, “Preparation of novel anthranilic acids as antibacterial agents. Extensive evaluation of alternative amide bioisosteres connecting the A- and the B-rings” (2007).

What all share (type): functional
The subject of one assay is Staphylococcus aureus. Description: Antibacterial activity against Staphylococcus aureus UC 9218.
A further assay relates to Enterococcus faecalis. Description: Antibacterial activity against Enterococcus faecalis UC 9217.
Assay [1] has as its system Staphylococcus epidermidis. Put plainly: Antibacterial activity against Staphylococcus epidermidis UC 12084.
The test system of the next assay is Streptococcus pneumoniae. Description: Antibacterial activity against Streptococcus pneumoniae UC 9912.
Another assay has as its system Haemophilus influenzae. Put plainly: Antibacterial activity against Haemophilus influenzae 30063.

Consider `N#Cc1ccc(C=Cc2cccc(S(=O)(=O)N3CCc4cc(Cl)ccc43)c2)c(C(=O)O)c1`, for which the MIC with Staphylococcus aureus is 16 µg/mL (≈ 34.4 µM); against Enterococcus faecalis, greater than 128 µg/mL; in assay [1], 32 µg/mL (≈ 68.8 µM); in the assay on Streptococcus pneumoniae it was 64 µg/mL (≈ 138 µM); against Haemophilus influenzae, greater than 128 µg/mL.
Consider `O=C(O)c1cc(Cl)ccc1-c1ccc(S(=O)(=O)N2CCc3cc(Cl)ccc32)cc1`, for which the MIC in the assay on Staphylococcus aureus was 128 µg/mL (≈ 286 µM); with Enterococcus faecalis, greater than 128 µg/mL; in assay [1] it was 128 µg/mL (≈ 286 µM); with Streptococcus pneumoniae it was greater than 128 µg/mL; against Haemophilus influenzae it was greater than 128 µg/mL.
As for `Cc1ccc(S(=O)(=O)Nc2ccc(-c3ccc(Cl)cc3)c(C(=O)O)c2)cc1`, the MIC against Staphylococcus aureus was greater than 128 µg/mL; with Enterococcus faecalis, greater than 128 µg/mL; in assay [1], 64 µg/mL (≈ 159 µM); with Streptococcus pneumoniae, greater than 128 µg/mL; in the assay on Haemophilus influenzae it was greater than 128 µg/mL.
`N#Cc1ccc(/C=C/c2cccc(S(=O)(=O)N3CCc4cc(Cl)ccc43)c2)c(C(=O)O)c1`: the MIC is 0.25 µg/mL (≈ 0.538 µM) with Staphylococcus aureus; 128 µg/mL (≈ 275 µM) against Enterococcus faecalis; 0.5 µg/mL (≈ 1.08 µM) in assay [1]; greater than 128 µg/mL with Streptococcus pneumoniae; greater than 128 µg/mL in the assay on Haemophilus influenzae.
With `O=C(O)c1cc(Br)ccc1-c1nnc(-c2ccccc2)o1`, the MIC (against Staphylococcus aureus; with Enterococcus faecalis; in assay [1]; against Streptococcus pneumoniae; in the assay with Haemophilus influenzae) was greater than 128 µg/mL throughout.
Turning to `O=C(O)c1cc(Br)ccc1-c1nnc(-c2ccccc2)[nH]1`, the MIC (in the assay with Staphylococcus aureus; in the assay on Enterococcus faecalis; in assay [1]; against Streptococcus pneumoniae; against Haemophilus influenzae) was greater than 128 µg/mL throughout.
Regarding `O=C(Nc1ccc(Br)cc1C(=O)O)c1ccc(S(=O)(=O)N2CCc3cc(Cl)ccc32)cc1`, the MIC against Staphylococcus aureus turned out to be 0.5 µg/mL (≈ 0.933 µM); against Enterococcus faecalis, 32 µg/mL (≈ 59.7 µM); in assay [1], 4 µg/mL (≈ 7.47 µM); in the assay with Streptococcus pneumoniae it was 4 µg/mL (≈ 7.47 µM); in the assay on Haemophilus influenzae, 128 µg/mL (≈ 239 µM).
Regarding `N#Cc1ccc([C@H]2C[C@@H]2c2cccc(S(=O)(=O)N3CCc4cc(Cl)ccc43)c2)c(C(=O)O)c1`, the MIC is 4 µg/mL (≈ 8.35 µM) in the assay with Staphylococcus aureus; greater than 128 µg/mL against Enterococcus faecalis; 8 µg/mL (≈ 16.7 µM) in assay [1]; greater than 128 µg/mL against Streptococcus pneumoniae; 16 µg/mL (≈ 33.4 µM) against Haemophilus influenzae.
Regarding `N#Cc1ccc(NC(=S)c2cccc(S(=O)(=O)N3CCc4cc(Cl)ccc43)c2)c(C(=O)O)c1`, the MIC against Staphylococcus aureus is 0.125 µg/mL (≈ 0.251 µM); in the assay with Enterococcus faecalis it was 32 µg/mL (≈ 64.3 µM); in assay [1] it was 0.125 µg/mL (≈ 0.251 µM); against Streptococcus pneumoniae, 16 µg/mL (≈ 32.1 µM); with Haemophilus influenzae it was 64 µg/mL (≈ 129 µM).
Regarding `O=C(O)c1cc(Cl)ccc1CCc1ccc(S(=O)(=O)N2CCc3cc(Cl)ccc32)cc1`, the MIC is 32 µg/mL (≈ 67.2 µM) with Staphylococcus aureus; greater than 128 µg/mL in the assay with Enterococcus faecalis; 32 µg/mL (≈ 67.2 µM) in assay [1]; 32 µg/mL (≈ 67.2 µM) against Streptococcus pneumoniae; greater than 128 µg/mL in the assay on Haemophilus influenzae.
